According to patent publication US10273248B2, “Glucose uptake inhibitors” (Kadmon Corporation LLC, priority 2015, dated 2019):

System: glycolysis in HT1080 cells
Test: Glycolysis assay: oligomycin plus compound, cellular ATP by Cell Titer Glo
Assay type: cell-based
Settings: 10 μM oligomycin, one hour, class symbols
Text: Therefore, an assay was developed that utilizes the combination of the glucose uptake inhibitors disclosed herein with oligomycin, a well-characterized inhibitor of ATP synthase. Because oligomycin inhibits ATP derived from oxidative phosphorylation, any remaining ATP production is derived from glycolysis. By reading out cellular ATP levels using the Promega Cell Titer Glo kit, the extent of glycolysis inhibition by the glucose uptake inhibitors disclosed herein can be assessed. […] Utilizing this experimental set-up, the IC50 of glycolysis inhibition for each compound can be determined.
Determination of Glucose Uptake/GLUT Activity (Glycolysis Assay):
HT1080 cells (as well as other cell types) were plated to confluency in 96-well plates. Cells were exposed to the combination of 10 μM Oligomycin (to block mitochondrial-derived ATP) and the glucose uptake inhibitors disclosed herein for one-hour, after which glycolytically-derived ATP was measured with the Cell Titer-Glo assay kit (Promega). Dose-response curves of the glucose uptake inhibitors disclosed herein were used to determine the IC50 for GLUT activity.

Row | SMILES | IC50 (Homo sapiens, HT-1080, 1 h) [µM] | IC50 [µM]
1 | Cn1cnc2c(Nc3ccc4[nH]ncc4c3)nc(-c3cccc(NC(=O)CN4CCOCC4)c3)nc21 [Example 14] | > 1 | 
2 | CC(C)NC(=O)COc1cccc(-c2nc(Nc3ccc4[nH]ncc4c3)c3sccc3n2)c1 [Example 15] | > 1 | 
3 | O=C(CN1CCOCC1)Nc1cccc(-c2nc(Nc3ccc4[nH]ncc4c3)c3sccc3n2)c1 [Example 16] | > 1 | 
4 | CC(C)NC(=O)COc1cccc(-c2nc(Nc3ccc4[nH]ncc4c3)c3ccsc3n2)c1 [Example 17] | > 1 | 
5 | O=C(CN1CCOCC1)Nc1cccc(-c2nc(Nc3ccc4[nH]ncc4c3)c3ccsc3n2)c1 [Example 18] | > 1 | 
6 | Cn1cnc2c(Nc3ccc(-c4cn[nH]c4)cc3)nc(-c3cccc(OCC(=O)NC4CC4)c3)nc21 [Example 22] | > 1 | 
7 | CC(C)NC(=O)COc1cc(F)cc(-c2nc(Nc3ccc(-c4cn[nH]c4)cc3)c3sccc3n2)c1 [Example 34] | > 1 | 
8 | CC(C)NC(=O)COc1cc(F)cc(-c2nc(Nc3ccc(-c4cn[nH]c4)cc3)c3ccsc3n2)c1 [Example 35] | > 1 | 
9 | CC(C)NC(=O)COc1cc(F)cc(-c2nc(Nc3ccc(-c4cn[nH]c4)cc3)c3ncn(C)c3n2)c1 [Example 36] | > 1 | 
10 | O=C(COc1cccc(-c2nc3c(c(Nc4ccc(-c5cn[nH]c5)cc4)n2)COC3)c1)N1CCOCC1 [Example 37, 2-(3-(4-((4-(1H-pyrazol-4-yl)phenyl)amino)-5,7-dihydrofuro[3,4-d]pyrimidin-2-yl)phenoxy)-1-morpholinoethan-1-one] | > 1 | 
11 | O=C(COc1cccc(-c2nc(Nc3ccc(-c4cn[nH]c4)cc3)c3ccsc3n2)c1)N1CCOCC1 [Example 39, 2-(3-(4-((4-(1H-pyrazol-4-yl)phenyl)amino)thieno[2,3-d]pyrimidin-2-yl)phenoxy)-1-morpholinoethan-1-one] | > 1 | 
12 | CNC(=O)COc1cccc(-c2nc(Nc3ccc(-c4cn[nH]c4)cc3)c3sccc3n2)c1 [Example 40, 2-(3-(4-((4-(1H-pyrazol-4-yl)phenyl)amino)thieno[3,2-d]pyrimidin-2-yl)phenoxy)-N-methylacetamide] | > 1 | 
13 | CCCNC(=O)COc1cccc(-c2nc(Nc3ccc(-c4cn[nH]c4)cc3)c3sccc3n2)c1 [Example 41, 2-(3-(4-((4-(1H-pyrazol-4-yl)phenyl)amino)thieno[3,2-d]pyrimidin-2-yl)phenoxy)-N-propylacetamide] | > 1 | 
14 | CNC(=O)COc1cccc(-c2nc3c(c(Nc4ccc(-c5cn[nH]c5)cc4)n2)COC3)c1 [Example 42, 2-(3-(4-((4-(1H-pyrazol-4-yl)phenyl)amino)-5,7-dihydrofuro[3,4-d]pyrimidin-2-yl)phenoxy)-N-methylacetamide] | > 1 | 
15 | O=C(Nc1cccc(-c2nc(Nc3ccc(-c4cn[nH]c4)cc3)c3sccc3n2)c1)c1cccnc1 [Example 43, N-(3-(4-((4-(1H-pyrazol-4-yl)phenyl)amino)thieno[3,2-d]pyrimidin-2-yl)phenyl)nicotinamide] |  | 0.101 to 0.25
16 | CNC(=O)COc1cccc(-c2nc(Nc3ccc(-c4cn[nH]c4)cc3)c3ccsc3n2)c1 [Example 45, 2-(3-(4-((4-(1H-pyrazol-4-yl)phenyl)amino)thieno[2,3-d]pyrimidin-2-yl)phenoxy)-N-methylacetamide] | > 1 | 

Now from value to compound:

Row | IC50 (Homo sapiens, HT-1080, 1 h) [µM] | IC50 [µM] | SMILES
17 | > 1 |  | O=C(CN1CCOCC1)Nc1cccc(-c2nc3c(c(Nc4ccc(-c5cn[nH]c5)cc4)n2)COC3)c1 [Example 2, N-(3-(4-((4-(1H-pyrazol-4-yl)phenyl)amino)-5,7-dihydrofuro[3,4-d]pyrimidin-2-yl)phenyl)-2-morpholinoacetamide]
18 | 0.251 to 0.5 |  | CC(C)NC(=O)COc1cccc(-c2nc(Nc3ccc(-c4cn[nH]c4)cc3)c3occc3n2)c1 [Example 3, 2-(3-(4-((4-(1H-pyrazol-4-yl)phenyl)amino)furo[3,2-d]pyrimidin-2-yl)phenoxy)-N-isopropylacetamide]
19 | > 1 |  | O=C(CN1CCOCC1)Nc1cccc(-c2nc(Nc3ccc(-c4cn[nH]c4)cc3)c3occc3n2)c1 [Example 4, N-(3-(4-((4-(1H-pyrazol-4-yl)phenyl)amino)furo[3,2-d]pyrimidin-2-yl)phenyl)-2-morpholinoacetamide]
20 | > 1 |  | Cn1cnc2c(Nc3ccc(-c4cn[nH]c4)cc3)nc(-c3cccc(NC(=O)CN4CCOCC4)c3)nc21 [Example 6, N-(3-(6-((4-(1H-pyrazol-4-yl)phenyl)amino)-9-methyl-9H-purin-2-yl)phenyl)-2-morpholinoacetamide]
21 | > 1 |  | O=C(CN1CCOCC1)Nc1cccc(-c2nc(Nc3ccc(-c4cn[nH]c4)cc3)c3sccc3n2)c1 [Example 8, N-(3-(4-((4-(1H-pyrazol-4-yl)phenyl)amino)thieno[3,2-d]pyrimidin-2-yl)phenyl)-2-morpholinoacetamide]
22 | 0.101 to 0.25 |  | CC(C)NC(=O)COc1cccc(-c2nc(Nc3ccc(-c4cn[nH]c4)cc3)c3ccsc3n2)c1 [Example 9, 2-(3-(4-((4-(1H-pyrazol-4-yl)phenyl)amino)thieno[2,3-d]pyrimidin-2-yl)phenoxy)-N-isopropylacetamide]
23 | > 1 |  | O=C(CN1CCOCC1)Nc1cccc(-c2nc(Nc3ccc(-c4cn[nH]c4)cc3)c3ccsc3n2)c1 [Example 10, N-(3-(4-((4-(1H-pyrazol-4-yl)phenyl)amino)thieno[2,3-d]pyrimidin-2-yl)phenyl)-2-morpholinoacetamide]
24 | > 1 |  | CC(C)NC(=O)COc1cccc(-c2nc3c(c(Nc4ccc5[nH]ncc5c4)n2)COC3)c1 [Example 11, 2-(3-(4-((1H-indazol-5-yl)amino)-5,7-dihydrofuro[3,4-d]pyrimidin-2-yl)phenoxy)-N-isopropylacetamide]
25 | > 1 |  | CC(C)NC(=O)COc1cccc(-c2nc(Nc3ccc4[nH]ncc4c3)c3ncn(C)c3n2)c1 [Example 13]
26 | 0.501 to 1 |  | O=C(COc1cccc(-c2nc(Nc3ccc(-c4cn[nH]c4)cc3)c3sccc3n2)c1)NC1CC1 [Example 20]
27 | 0.251 to 0.5 |  | O=C(COc1cccc(-c2nc(Nc3ccc(-c4cn[nH]c4)cc3)c3occc3n2)c1)NC1CCC1 [Example 25]
28 | 0.251 to 0.5 |  | O=C(COc1cccc(-c2nc(Nc3ccc(-c4cn[nH]c4)cc3)c3occc3n2)c1)NC1CCCC1 [Example 26]
29 | 0.101 to 0.25 |  | O=C(COc1cccc(-c2nc(Nc3ccc(-c4cn[nH]c4)cc3)c3ccsc3n2)c1)NC1CCC1 [Example 27]
30 | 0.101 to 0.25 |  | O=C(COc1cccc(-c2nc(Nc3ccc(-c4cn[nH]c4)cc3)c3ccsc3n2)c1)NC1CCCC1 [Example 28]
31 | 0.251 to 0.5 |  | Cn1cnc2c(Nc3ccc(-c4cn[nH]c4)cc3)nc(-c3cccc(OCC(=O)NC4CCC4)c3)nc21 [Example 29]
32 | 0.101 to 0.25 |  | Cn1cnc2c(Nc3ccc(-c4cn[nH]c4)cc3)nc(-c3cccc(OCC(=O)NC4CCCC4)c3)nc21 [Example 30]
33 | 0.501 to 1 |  | CC(C)NC(=O)COc1cc(F)cc(-c2nc3c(c(Nc4ccc(-c5cn[nH]c5)cc4)n2)COC3)c1 [Example 33]
34 | 0.501 to 1 |  | O=C(COc1cccc(-c2nc(Nc3ccc(-c4cn[nH]c4)cc3)c3sccc3n2)c1)N1CCOCC1 [Example 38, 2-(3-(4-((4-(1H-pyrazol-4-yl)phenyl)amino)thieno[3,2-d]pyrimidin-2-yl)phenoxy)-1-morpholinoethan-1-one]
35 | 0.501 to 1 |  | CCCNC(=O)COc1cccc(-c2nc(Nc3ccc(-c4cn[nH]c4)cc3)c3ccsc3n2)c1 [Example 46, 2-(3-(4-((4-(1H-pyrazol-4-yl)phenyl)amino)thieno[2,3-d]pyrimidin-2-yl)phenoxy)-N-propylacetamide]
